Laboratory results published in article PMC5874726, “Comparison Study of Two Differently Clicked ^18F-Folates—Lipophilicity Plays a Key Role” (Pharmaceuticals, 2018).

Assays:
[1] = Stability in human serum albumin at 37 °C; conditions: 2 h
Experimental: The in vitro stability was assessed in human serum albumin at 37 °C.
For testing the stability, 200 µL of ^18F-DBCO-folate or ^18F-Ala-folate (ca. 4 MBq) were incubated at 37 °C in 500 µL human serum albumin. After predetermined time points plasma proteins were precipitated with 600 µL ice-cold acetonitrile followed by centrifugation (10,000 rpm, 10 min). An aliquot of the supernatant was injected into an analytical radio-HPLC.

FR-negative OC316 cells = assay: Internalization studies in FR-negative OC316 cells; type: cell-based, human; conditions: blocked KB cells and FR-negative OC316 cells
Experimental: (§1) Two different temperatures (4 °C for receptor binding, 37 °C for receptor binding and internalization) and two different concentrations were assessed. […] Both radiofolates show a concentration as well as temperature depended increase of activity in the FR positive cells. […] This effect is not fully understood, but we presume the high lipophilicity in combination with the increased concentration being responsible for this high non-specific binding. […] Thus, about 90% of ^18F-DBCO-folate remained in solution, which is ideal for such a radiotracer assay set-up (see supporting information for pie chart of activity distribution, Figure S6). For ^18F-Ala-folate the overall receptor-bound and internalized fractions are similar to ^18F-DBCO-folate (see supporting information for pie chart of activity distribution, Figure S7).
As folate-receptor positive control, KB cells (derived from human cervical carcinoma; obtained from German Collection of Microorganisms and Cell Cultures), and OC316 cells (derived from human ovarian adenocarcinoma) as negative control were used. For FACS analysis, data of both cell lines see supporting information Figure S5. The cells were cultured in folate deficient RPMI 1640 medium containing 10% FCS, 1% penicillin-streptomycin and HEPES buffer (10 mM, 5 mL) grown at 37 °C in a humidified atmosphere containing 5% CO2. […]

healthy balb/c mice = assay: Ex vivo biodistribution in healthy balb/c mice; conditions: healthy balb/c mice, 60 min p.i.
Source text: (§2) All animal experiments were approved by the local ethical committee (permission no. 23177-07/G15-1-033). Balb/c and balb/c nude (Balb/c AnNRj-Foxn1nu) mice were kept on a folate-deficient rodent diet to reduce their blood level of folate to one found in humans. After 7 days of acclimatization, human KB tumor cells (2.5 x 10^6 cells in PBS) were inoculated in the right shoulder of each balb/c nude mouse. All in vivo treatments and imaging experiments were done under isoflurane anesthesia. Eleven or twelve days after inoculation, animals were intravenously injected with ^18F-DBCO-Folate and ^18F-Ala-Folate (5–8 MBq, 100–200 µL) via a lateral tail vein. […] PET/MRI-studies were performed on a nanoScan PET/MRI (Mediso, Budapest, Hungary). First MRI scans (Material Map for co-registration of the PET scan; 3D; GRE-EXT, FOV; slice thickness: 0.6 mm; TE: 2 ms; TR: 15 ms; flip angle: 25 deg) were acquired and then either a dynamic scan over 60 min starting with injection of the radiotracer or a static scan for 10 min after 50 min p.i. were performed. All mice, which underwent ex vivo biodistribution, were scanned first. Afterwards co-registered PET/MR images were analyzed via PMOD (version 3.6) and Inveon Research Workplace (version 4.2). For ex vivo biodistribution studies mice were euthanized 60 min p.i. and organs of interest were dissected, weighed, and measured in a γ-counter (PerkinElmer 2470 Wizard2, Perkin Elmer, Rodgau, Germany). The incorporated radioactivity was expressed as percentage of injected dose per gram of tissue (% ID/g).

[2] = set-up: method as in doi:10.1039/C5MD00508F; conditions: pH 7.4, shake-flask; cited from earlier work
KB-tumor bearing mice = assay: Ex vivo biodistribution in KB-tumor bearing mice; conditions: 60 min p.i.; for uptake Appendix / uptake Blood / uptake Heart / uptake Inguinal lymph nodes / uptake Intestines (empty) / uptake Left kidney / uptake Liver / uptake Lung / uptake Muscle / uptake Pancreas / uptake Right kidney / uptake Spleen / uptake Stomach (empty) / uptake Tumor: KB xenograft mice
Source text: as §2

FR-positive KB cells = assay: Internalization studies in FR-positive KB cells; type: cell-based, human; conditions: 5 nM, 37 °C, 1 h
Experimental: as §1
As folate-receptor positive control, KB cells (derived from human cervical carcinoma; obtained from German Collection of Microorganisms and Cell Cultures), and OC316 cells (derived from human ovarian adenocarcinoma) as negative control were used. For FACS analysis, data of both cell lines see supporting information Figure S5. The cells were cultured in folate deficient RPMI 1640 medium containing 10% FCS, 1% penicillin-streptomycin and HEPES buffer (10 mM, 5 mL) grown at 37 °C in a humidified atmosphere containing 5% CO2. […] To determine the internalized fraction of both new ^18F-folate derivatives, different concentrations (1 and 5 nM) of the labeled agents were incubated with one million KB or OC316 cells at 4 °C and 37 °C. […] After 1h, the supernatant was removed, cells washed with PBS and with an acetate buffer (pH 3).

KB tumor-bearing mice = assay: µPET imaging in KB tumor-bearing mice; type: in vivo, mouse
Source text: as §2

[3] = blocked with 100 µg native folic acid
[4] = blockade with 100 µg native folic acid

still intact after incubation [1]: > 90% | uptake Blood (healthy balb/c mice): 0.08 ± 0.01 %ID/g tissue | uptake Heart (healthy balb/c mice): 0.09 ± 0.01 %ID/g tissue | uptake Inguinal lymph nodes (healthy balb/c mice): 0.18 ± 0.08 %ID/g tissue | uptake Intestines (empty) (healthy balb/c mice): 0.87 ± 0.57 %ID/g tissue | uptake Left kidney (healthy balb/c mice): 3.90 ± 0.38 %ID/g tissue | uptake Liver (healthy balb/c mice): 0.24 ± 0.02 %ID/g tissue | uptake Lung (healthy balb/c mice): 0.35 ± 0.27 %ID/g tissue | uptake Muscle (healthy balb/c mice): 0.06 ± 0.01 %ID/g tissue | uptake Pancreas (healthy balb/c mice): 0.08 ± 0.01 %ID/g tissue | uptake Right kidney (healthy balb/c mice): 3.99 ± 0.37 %ID/g tissue | uptake Spleen (healthy balb/c mice): 0.07 ± 0.02 %ID/g tissue | uptake Blood (healthy balb/c mice; [3]): 0.12 ± 0.05 %ID/g tissue | uptake Heart (healthy balb/c mice; [3]): 0.11 ± 0.06 %ID/g tissue | uptake Inguinal lymph nodes (healthy balb/c mice; [3]): 0.10 ± 0.08 %ID/g tissue | uptake Intestines (empty) (healthy balb/c mice; [3]): 0.33 ± 0.22 %ID/g tissue | uptake Left kidney (healthy balb/c mice; [3]): 0.40 ± 0.07 %ID/g tissue | uptake Liver (healthy balb/c mice; [3]): 0.33 ± 0.08 %ID/g tissue | uptake Lung (healthy balb/c mice; [3]): 0.36 ± 0.11 %ID/g tissue | uptake Muscle (healthy balb/c mice; [3]): 0.07 ± 0.05 %ID/g tissue | uptake Pancreas (healthy balb/c mice; [3]): 0.09 ± 0.05 %ID/g tissue | uptake Right kidney (healthy balb/c mice; [3]): 0.38 ± 0.07 %ID/g tissue | uptake Spleen (healthy balb/c mice; [3]): 0.11 ± 0.06 %ID/g tissue | tumor/blood ratio (KB-tumor bearing mice): 5.61 | tumor/muscle ratio (KB-tumor bearing mice): 6.86 | uptake Appendix (KB-tumor bearing mice): 0.13 ± 0.02 %ID/g tissue | uptake Blood (KB-tumor bearing mice): 0.09 ± 0.04 %ID/g tissue | uptake Heart (KB-tumor bearing mice): 0.08 ± 0.02 %ID/g tissue | uptake Inguinal lymph nodes (KB-tumor bearing mice): 0.48 ± 0.14 %ID/g tissue | uptake Intestines (empty) (KB-tumor bearing mice): 0.42 ± 0.52 %ID/g tissue | uptake Left kidney (KB-tumor bearing mice): 4.83 ± 0.90 %ID/g tissue | uptake Liver (KB-tumor bearing mice): 0.18 ± 0.07 %ID/g tissue | uptake Lung (KB-tumor bearing mice): 0.17 ±0.06 %ID/g tissue | uptake Muscle (KB-tumor bearing mice): 0.07 ± 0.01 %ID/g tissue | uptake Pancreas (KB-tumor bearing mice): 0.07 ±0.01 %ID/g tissue | uptake Right kidney (KB-tumor bearing mice): 4.76 ± 0.89 %ID/g tissue | uptake Spleen (KB-tumor bearing mice): 0.06 ± 0.02 %ID/g tissue | uptake Stomach (empty) (KB-tumor bearing mice): 0.82 ± 0.64 %ID/g tissue | uptake Tumor (KB-tumor bearing mice): 0.48 ± 0.14 %ID/g tissue | uptake Appendix (KB-tumor bearing mice; [4]): 0.07 ± 0.01 %ID/g tissue | uptake Blood (KB-tumor bearing mice; [4]): 0.06 ± 0.04 %ID/g tissue | uptake Heart (KB-tumor bearing mice; [4]): 0.04 ± 0.02 %ID/g tissue | uptake Inguinal lymph nodes (KB-tumor bearing mice; [4]): 0.04 ± 0.02 %ID/g tissue | uptake Intestines (empty) (KB-tumor bearing mice; [4]): 0.56 ± 0.81 %ID/g tissue | uptake Left kidney (KB-tumor bearing mice; [4]): 0.30 ± 0.04 %ID/g tissue | uptake Liver (KB-tumor bearing mice; [4]): 0.14 ± 0.06 %ID/g tissue | uptake Lung (KB-tumor bearing mice; [4]): 0.13 ± 0.05 %ID/g tissue | uptake Muscle (KB-tumor bearing mice; [4]): 0.02 ± 0.01 %ID/g tissue | uptake Pancreas (KB-tumor bearing mice; [4]): 0.03 ± 0.02 %ID/g tissue | uptake Right kidney (KB-tumor bearing mice; [4]): 0.30 ± 0.02 %ID/g tissue | uptake Spleen (KB-tumor bearing mice; [4]): 0.05 ± 0.03 %ID/g tissue | uptake Stomach (empty) (KB-tumor bearing mice; [4]): 0.22 ± 0.09 %ID/g tissue | uptake Tumor (KB-tumor bearing mice; [4]): 0.09 ± 0.04 %ID/g tissue | tumor/liver ratio (KB-tumor bearing mice; liver including gallbladder): 2.58 | reduction of activity in the tumor in the blocked group (KB-tumor bearing mice; preinjection of excess native folic acid): 81% | uptake in the bones (in vivo defluorination) (KB tumor-bearing mice; PET): Negligible uptake
Compound: Nc1nc2ncc(CNc3ccc(C(=O)NC(CCC(=O)NCCOCCOCCOCCn4nnc5c4-c4ccccc4CN(C(=O)CCNC(=O)CCOCCOCCOCC[18F])c4ccccc4-5)C(=O)O)cc3)nc2c(=O)[nH]1 (centres unmarked) [^18F-DBCO-folate]
non-specific binding (FR-negative OC316 cells): distinct non-specific binding | logD7.4 Value [2]: 0.6 ± 0.07 [18] | fraction of tracer internalized (FR-positive KB cells): about 3% | fraction of tracer receptor bound (FR-positive KB cells): about 7% | fraction of tracer remained in solution (FR-positive KB cells): about 90% | visualization of KB tumors in maximum intensity projection (MIP) PET images (KB tumor-bearing mice; static scan 50-60 min p.i.): impeded
